Reference: patent US5723115A, “Inhibition of adipose tissue development and obesity” (W. Alton Jones Cell Science Center, Inc., priority 1993, dated 1998)

Legend:
1246 cells = test: Differentiation of 1246 cells (G3PDH enzymatic activity); format: cell-based
Procedure: FIG. 11 is a graph showing the dose-related inhibition of adipocyte differentiation by prostaglandin F2α (PGF^2α). 1246 cells were incubated with the indicated dose of pGF^2α
FIG. 12 is a graph showing that indomethacin reverses the EGF-induced inhibition of adipocyte differentiation. 1246 cells were incubated in medium ("no"=control, 100% of activity) or in the presence of indicated concentrations of EGF, indomethacin ("Indo") or a mixture of EGF (E) at the indicated concentration and indomethacin (I) at 3 μM. As above, differentiation was assessed as G3PDH enzymatic activity.
Stimulation of PLA2 will result in the activation of the cyclooxygenase pathway, leading to generation of various prostaglandins, as is well-known in the art. One metabolite of this pathway, prostaglandin F2α (PGF2α), was tested for its ability to act as a mediator of the EGF effect and inhibit adipocyte differentiation.
If EGF inhibits adipocyte differentiation via the activation of PLA2 and cyclooxygenase, it would be expected that an inhibitor of cyclooxygenase would counteract the EGF effect.

[1] = tested on: newborn NBR rats (inguinal fat pads); test: Daily sc EGF injection of newborn NBR rats for 10 days: eyelid response, body, organ and inguinal fat pad measures; format: in vivo, rat
Procedure: New Zealand Brown (NBR) rats (Trudeau Institute, Saranac Lake, N.Y.) were mated in the animal facilities of the W. Alton Jones Cell Science Center. One day after delivery, litter size was adjusted to 6-8 pups/female according to the size and age of the females. No more than 8 pups/female were used. Mothers were fed ad libitum a regular laboratory diet and were allowed free access to water. Animals were housed in rooms in which the air flow, temperature and lights were controlled (12 h of light between 6 AM to 6 PM).
Mouse "receptor grade" EGF (Biomedical Technologies, Inc.) was used in all experiments. […] Beginning at 24 hrs after birth, rats were injected subcutaneously (sc) daily for 10 days with EGF dissolved in physiological saline at doses varying between 0.1 and 1.0 μg/g of body weight. The pups were weighed prior to each injection. Control animals were similarly handled and weighed, and were injected sc with an equivalent volume of physiological saline.
(§1) Inguinal fat pads, well developed in 10 day-old animals, can be easily dissected. Inguinal fat pads were excised, weighed and pooled. They were digested with collagenase using the method of Bjorntorp et al. (23), and duplicate aliquots were kept for measuring triglyceride content as described below. Digestion conditions minimized breakage of adipocytes during the incubation period (23). After digestion, the cell suspension was filtered through a 253 μm nylon mesh filter. Adipocytes were easily recovered by two successive flotations of the cell suspension. The infranatant containing the adipocyte precursors was removed with a plastic pipet and further filtered through an 80 μm nylon mesh. The adipocytes remained in the tube after removal of the infranatant. They were gently resuspended in culture medium and counted in a hemocytometer. The filtrate containing the adipocyte precursors was centrifuged twice at 200×g for 5 minutes. Adipocyte precursor pellets were resuspended in 4F medium. The cells were subsequently counted in a hemocytometer and inoculated in 35 mm dishes in 4F medium as described previously (24). Such cultures were used to evaluate the cells' ability to differentiate and to measure their responsiveness to EGF.
For determination of triglyceride content, lipids were extracted from duplicate aliquots of the fat pad cell suspensions obtained as above pads, using the method of Bligh et al. (26). Triglycerides were separated by thin-layer chromatography on silica gel plates using hexane/[…]/formic acid (60:40:1) as a solvent system. Spots containing triglycerides were scraped, and the triglyceride content was determined by the method of Marsh et al. (27). This method consists of a quantitative charring of the triglycerides at 200° C. for 15 min in the presence of concentrated sulfuric acid. Absorbance of the samples at 350 nm was measured in a spectrophotometer using known amounts of triolein as standards.
Ten separate in vivo experiments were performed with neonatal NBR rats. Over the 10 day period, pups injected with saline alone or with EGF were weighed daily. The efficiency of EGF injected was assessed by monitoring the "eyelid response," by determining the postnatal day on which eyelid opening occurs, which is related to the EGF dose (28). Eyelid opening occurred at day 8 in rats injected with EGF at a concentration of 1 μg/g body weight, 24 hrs later in rats treated with 0.6 μg EGF/g body weight, and 48 hrs later in rats injected with 0.3 μg EGF/g body weight.

newborn rats = test: Neonatal EGF treatment of rats, body weight development over 28 days; format: in vivo, rat; details: 0.6 μg/g body weight, from 24 hours after birth, 9 days
Procedure: FIG. 6 is a graph showing the effect of EGF treatment of newborn rats on development of body weight over 28 days. Rats were injected beginning at 24 hours after birth with EGF (0.6 μg/g body weight) (filled squares) or with vehicle (PBS) (+) for 9 days.

obese yellow mice = test: Neonatal EGF treatment of obese yellow mice, body weight development over 43 days; format: in vivo, mouse; details: 1 μg/g body weight, day 1 to day 10 of life
Procedure: FIG. 7 is a graph showing the effect of EGF treatment on development of body weight in obese yellow mice over 43 days. Mice were injected beginning at 24 hours after birth with EGF (1 μg/g body weight) (filled diamonds, marked 1Y) or with vehicle (PBS) (+, marked OY) for 9 days. Weights are shown beginning at postnatal day 13

phospholipase A2 (PLA2) = details: EGF 10 ng/ml
Procedure: Experiments were performed to examine whether stimulation of adipocyte precursors, either primary cultures or the 1246 cell line, activated the enzyme phospholipase A2 (PLA2) which results in the activation of cyclooxygenase and the generation of prostaglandins.

[2] = tested on: adipocyte precursors isolated from inguinal fat pads; details: earlier study; cited from earlier work
adipocyte precursors = test: Effect of EGF on proliferation of adipocyte precursors in 4F medium (cell count); format: cell-based, rat
Procedure: FIG. 5 is a graph showing the effect of EGF on proliferation of adipocyte precursors. Controls and EGF-treated animals as in FIG. 4. After 8 days of culture, cells were detached with trypsin and counted on a Coulter counter. Values represent means±standard errors.
For this purpose, adipocyte precursors isolated from inguinal fat pads of control or EGF-injected animals (1 μg/g body weight) were cultivated in 4F medium alone or in the presence of increasing concentrations of EGF. […] The ED50 for EGF on cells from EGF-treated animals was calculated to be 0.5 ng/ml, compared to an ED50 of 0.9 ng/ml for EGF acting on control cells.
Marked stimulation of proliferation (in cells from controls or EGF-treated rats) was observed only at EGF concentrations above 1 ng/ml.

[3] = tested on: adipocyte precursors isolated from inguinal fat pads; test: Differentiation capacity in 4F medium of adipocyte precursors isolated from EGF-treated rats (G3PDH specific activity); format: cell-based, rat
Procedure: as §1
(§2) The defined medium designated 4F consists of a 1:1 mixture of Dulbecco's modified Eagle's medium (DME) and Ham's F12 medium (DME-F12 medium) containing 15 mM HEPES, pH 7.4, 1.2 mg/ml sodium bicarbonate, 50 μg/ml gentamicin, and the following mixture of proteins: fibronectin (2.5 μg/ml), insulin (10 μg/ml), transferrin (10 μg/ml) and fibroblast growth factor (10 ng/ml). The medium was originally developed to support the differentiation of the adipogenic cell line, 1246 (25). When cultivated in this medium, optimal differentiation of adipocyte precursors was achieved within 8 days of culture (24).
It was shown previously (24) that adipocyte precursors freshly isolated from inguinal fat pads of 48 hr-old rats proliferated and differentiated in 4F medium (see above). […]

[4] = tested on: adipocyte precursors isolated from inguinal fat pads; test: Inhibition by EGF of differentiation of primary culture adipocyte precursors (G3PDH activity); format: cell-based, rat
Procedure: as §1, §2
Studies from the present inventor's laboratory (10) have shown that the differentiation in vitro of adipocyte precursors cultivated in 4F medium was inhibited in a dose-dependent manner by EGF added to the medium. […]

[5] = tested on: organs including inguinal fat pads; details: rat, in vivo
Source text: One question raised by the above results is whether the inhibition of adipose tissue development by EGF is due to a direct action of EGF on adipose tissue or by indirect action via another growth factor or hormone. Several observations point to direct action of EGF: EGF inhibits the differentiation of primary culture of adipocyte precursors freshly isolated from inguinal fat pads (10); adipocyte precursors have specific EGF receptors on their surface (10).

EGF receptors = target: T1, EGF receptors (Rattus norvegicus, UniProt G3V6K6); test: 125I-EGF binding to EGF receptors on adipocyte precursors; details: control and treated rats, with or without acid wash
T1 construct: adipocyte precursors have specific EGF receptors on their surface; endogenous in cells; host or cells: primary adipocyte precursors from inguinal fat pads of neonatal NBR rats
Source text: The properties of adipocytes from EGF-treated rats, namely, a decreased ability to differentiate and an increased sensitivity to EGF in vitro, could not be explained by occupancy of EGF receptors at the time of cell isolation.

[6] = EGF-treated compared to control animals

With COc1ccc2c(c1)c(CC(=O)O)c(C)n2C(=O)c1ccc(Cl)cc1 [indomethacin] the “effect on EGF inhibition of adipocyte differentiation” value (1246 cells; indomethacin 3 μM with EGF at 2 or 10 ng/ml) was “completely reversed”.

For Epidermal growth factor [EGF], the “eyelid opening at termination, day 10” value ([1]; 0.1 μg EGF/g body weight sc daily) was “eyelid opening had not yet occurred”, the “eyelid opening, time later than at the 1 μg/g dose” value ([1]; 0.3 μg EGF/g body weight sc daily) was 48 h and the “eyelid opening, time later than at the 1 μg/g dose” value ([1]; 0.6 μg EGF/g body weight sc daily) was 24 h. For the same compound, the “fat pad triglyceride content, lower than control” value ([1]; 1 μg EGF/g body weight) was 80%, the “number of mature adipocytes in the fat pad, lower than in control animals” value ([1]; 1 μg EGF/g body weight) was 4 fold and the “body weight, less than in control animals” value ([1]; 1 μg EGF/g body weight, 10 days) was 40%. The “inguinal fat pad weight, lower than in controls” value ([1]; 1 μg of EGF/g body weight, 10 days) was 50%, the “number of adipocyte precursors per fat pad, higher than in control animals” value ([1]; 1 μg/g body weight) was 1.8 fold and the “postnatal day on which eyelid opening occurs” value ([1]; 1 μg/g body weight sc daily) was 8 days. For the same compound, the intestinal weight ([1]; EGF treatment) was “increased”, the kidney weight ([1]; EGF treatment) was “some decrease” and the liver weight ([1]; EGF treatment) was “unchanged”. For the same compound, the “total number of cells (precursors plus adipocytes) in fat pads, lower than controls” value ([1]; EGF-treated animals) was 40%, the hair growth [1, 6] was “delay in hair growth” and the incisor eruption [1, 6] was “acceleration of incisor eruption”. The “lowest EGF dose at which a significant delay of adipose tissue development was observed” value ([1]; daily sc injection) was 0.3 μg/g body weight, the “body weight over a 28 day period” value (newborn rats) was “significant reduction in body weight” and the “body weight over at least 43 days” value (obese yellow mice) was “prolonged and profound diminution in body weight”. The PLA2 activity (phospholipase A2 (PLA2)) was “increase in PLA2 activity”, the “differentiation of primary culture adipocyte precursors from inguinal fat pad of newborn rats” value [2] was “potent inhibitor” and the “effect on cell proliferation of the EGF concentration which inhibited differentiation by 50%” value (adipocyte precursors) was “moderate or no effects”. The “proliferation of adipocyte precursors” value (adipocyte precursors; EGF added to 4F medium, cells from control and EGF-treated rats, 8 days) was “stimulated proliferation”, the “EGF concentration giving marked stimulation of proliferation” value (adipocyte precursors; cells from controls or EGF-treated rats) was “above 1 ng/ml” and the “G3PDH specific activity corresponding to 100% activity (FIG. 4)” value ([3]; cells from EGF-treated rats) was 337±53 milliunits/mg protein. For the same compound, the “G3PDH specific activity, lower than control” value ([3]; cells from animals treated with 1 μg/g, day 8 of culture) was 60%, the G3PDH specific activity ([3]; cells from animals treated with EGF 1 μg/g, 5 separate experiments) was 337±53 mU/mg protein and the “differentiation (G3PDH activity)” value ([4]; EGF 10 ng/ml, primary cultures) was “inhibition of differentiation”. For the same compound, the “ED50 for inhibition of differentiation (G3PDH enzyme activity)” value ([4]; cells from EGF-treated animals (1 μg/g body weight)) was 0.5 ng/mL and the “ED50 for inhibition of differentiation (G3PDH enzyme activity)” value ([4]; control cells) was 0.9 ng/mL.

With “^125 I-EGF: radiolabeled EGF used in binding studies” the “binding to organs after sc injection” value [5] was “specifically bound to several organs including inguinal fat pads” and the “EGF bound to EGF receptors on adipocyte precursors” value (EGF receptors) was “about 4 pg EGF bound per 10^5 cells”.

In the case of prostaglandin F2α [PGF2α], the “differentiation of 1246 cells” value (1246 cells; indicated doses (FIG. 11)) is reported as “concentration-dependent inhibition”.

In the case of transforming growth factor.α [TGFα], the “differentiation of primary culture adipocyte precursors from inguinal fat pad of newborn rats” value [2] is given as “potent inhibitor”.
